In PubChem BioAssay AID1918936 (Molecular Pharmacology Branch, DTP, NCI, 2023):
“And” between values parts separate entries of the source, which are not always exact repeats. Equal entries are not always repeated.

Tested on: 349418-098-R-PDC complex spheroid viability
Assay: Anticancer human tumor 349418-098-R-PDC patient-derived lung adenocarcinoma cell line growth inhibition
Conditions: for viability, T/C: stronger effect = lower value
How it was run: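 Drug combinations with the LSD1 inhibitor iadademstat tested on tumor cells co-cultured as spheroids with endothelial cells and mesenchymal stem cells. Concentrations descended in half-log increments from clinical Cmax or 10 microM.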

[1] = curve of first compound, second compound 0.1 µM
[2] = curve of first compound, second compound 0.316 µM
[3] = curve of first compound, second compound 1 µM
[4] = curve of first compound, second compound 3.16 µM
[5] = curve of first compound, second compound 10 µM
[6] = second compound 0.1 µM, first compound 0.00316 µM
[7] = second compound 0.1 µM, first compound 0.01 µM
[8] = second compound 0.1 µM, first compound 0.0316 µM
[9] = second compound 0.1 µM, first compound 0.1 µM
[10] = second compound 0.1 µM, first compound 0.316 µM
[11] = second compound 0.1 µM, first compound 1 µM
[12] = second compound 0.316 µM, first compound 0.00316 µM
[13] = second compound 0.316 µM, first compound 0.01 µM
[14] = second compound 0.316 µM, first compound 0.0316 µM
[15] = second compound 0.316 µM, first compound 0.1 µM
[16] = second compound 0.316 µM, first compound 0.316 µM
[17] = second compound 0.316 µM, first compound 1 µM
[18] = second compound 1 µM, first compound 0.00316 µM
[19] = second compound 1 µM, first compound 0.01 µM
[20] = second compound 1 µM, first compound 0.0316 µM
[21] = second compound 1 µM, first compound 0.1 µM
[22] = second compound 1 µM, first compound 0.316 µM
[23] = second compound 1 µM, first compound 1 µM
[24] = second compound 3.16 µM, first compound 0.00316 µM
[25] = second compound 3.16 µM, first compound 0.01 µM
[26] = second compound 3.16 µM, first compound 0.0316 µM
[27] = second compound 3.16 µM, first compound 0.1 µM
[28] = second compound 3.16 µM, first compound 0.316 µM
[29] = second compound 3.16 µM, first compound 1 µM
[30] = second compound 10 µM, first compound 0.00316 µM
[31] = second compound 10 µM, first compound 0.01 µM
[32] = second compound 10 µM, first compound 0.0316 µM
[33] = second compound 10 µM, first compound 0.1 µM
[34] = second compound 10 µM, first compound 0.316 µM
[35] = second compound 10 µM, first compound 1 µM
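Note: spheroids exposed to agents for seven days before readout.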
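Throughout, for viability, T/C: 100% = DMSO vehicle control wells.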

| SMILES | IC50 [1] [nM] | IC50 [2] [nM] | IC50 [3] [nM] | IC50 [4] [nM] | IC50 [5] [nM] | viability, T/C [6] [%] | viability, T/C [7] [%] | viability, T/C [8] [%] | viability, T/C [9] [%] | viability, T/C [10] [%] | viability, T/C [11] [%] | viability, T/C [12] [%] | viability, T/C [13] [%] | viability, T/C [14] [%] | viability, T/C [15] [%] | viability, T/C [16] [%] | viability, T/C [17] [%] | viability, T/C [18] [%] | viability, T/C [19] [%] | viability, T/C [20] [%] | also measured |
| --- | --- | --- | --- | --- | --- | --- | --- | --- | --- | --- | --- | --- | --- | --- | --- | --- | --- | --- | --- | --- | --- |
| CC1COCCN1c1cc(-c2ccnn2C)c2ccnc(-c3ccn[nH]3)c2n1 (configuration not stated) + NC1CCC(NC2CC2c2ccccc2)CC1 | 13.7 | 16.1 | 11.4 | 9.65 | 8.1 | 91.5 | 62.6 | 16.8 | 9.57 | 7.39 | 5.98 | 108 | 71.9 | 18.5 | 9.43 | 6.72 | 6.47 | 98.5 | 54.5 | 16.6 | viability, T/C [21]: 9.69%; viability, T/C [22]: 7.82%; viability, T/C [23]: 5.98%; viability, T/C [24]: 98.1%; viability, T/C [25]: 48.5%; viability, T/C [26]: 14.4%; viability, T/C [27]: 8.55%; viability, T/C [28]: 6.56%; viability, T/C [29]: 5.96%; viability, T/C [30]: 90.7%; viability, T/C [31]: 40.9%; viability, T/C [32]: 14.5%; viability, T/C [33]: 7.6%; viability, T/C [34]: 6.06%; viability, T/C [35]: 5.03% |
| NS(=O)(=O)OCC1CC(n2ccc3c(NC4CCc5ccccc54)ncnc32)CC1O (configuration not stated) | – | – | – | – | – | – | – | – | – | – | – | – | – | – | – | – | – | – | – | – | viability, T/C (compound 0.00949 µM): 97.7% and 104%; viability, T/C (compound 0.03 µM): 98% and 68.5%; viability, T/C (compound 0.0949 µM): 33.6% and 29.1%; viability, T/C (compound 0.3 µM): 18.3% and 11%; viability, T/C (compound 0.949 µM): 7.34% and 5.1%; viability, T/C (compound 3 µM): 4.71% and 4.35%; IC50 (curve of compound): 70.6 nM and 51.6 nM |
| COc1cc(Nc2ncc3c(n2)-c2ccc(Cl)cc2C(c2c(F)cccc2OC)=NC3)ccc1C(=O)O + NC1CCC(NC2CC2c2ccccc2)CC1 | 21.2 | 18.1 | 28 | 15.8 | 21.2 | 99.2 | 64.7 | 41.8 | 38.5 | 32.1 | 37.4 | 87.3 | 63.1 | 37.7 | 38.9 | 39.7 | 32.5 | 85 | 62.8 | 43.6 | viability, T/C [21]: 47.3%; viability, T/C [22]: 40.9%; viability, T/C [23]: 34.5%; viability, T/C [24]: 99.5%; viability, T/C [25]: 58.9%; viability, T/C [26]: 35.6%; viability, T/C [27]: 40.4%; viability, T/C [28]: 31.9%; viability, T/C [29]: 37.7%; viability, T/C [30]: 75.3%; viability, T/C [31]: 54.2%; viability, T/C [32]: 48.2%; viability, T/C [33]: 41.6%; viability, T/C [34]: 34%; viability, T/C [35]: 34.7% |
